# Laboratory results published in article PMC6788984, “High-potency ligands for DREADD imaging and activation in rodents and monkeys” (Nature Communications, 2019).
# Values joined by “and” are separate entries in the source; they are usually repeats but may differ in a detail not shown here. Equal values may be shown once.
# Legend:
# WT littermates = test: Locomotor activity in WT littermate rats; type: in vivo, rat
# Description: Tyrosine hydroxylase (TH):Cre rats (n = 9; founder, K. Deisseroth lab) or WT littermates (n = 9) were bilaterally injected with AAV2 hSyn-DIO-hM3Dq-mCherry (1ul/hemisphere, Addgene), and allowed to recover for 2 + weeks. Following handling, they were habituated to a Med Associates locomotor testing box (43 × 43 × 30.5 cm) for 2 h on 2 days, then repeatedly tested after separate day doses of DREADD agonists and vehicle. […]. Vehicle was administered on 2 separate days, and average locomotion was used for comparison with DREADD agonists. Cohort 2 underwent the same procedures, but with a 4 h testing session, and the following IP injections: vehicle (x2), JHU37152 (0.01–0.3 mg kg^−1), JHU37160 (0.01–0.3 mg kg^−1). All drugs were dissolved in 5% DMSO in saline, and injected 1 ml kg^−1. Following all tests, rats were transcardially perfused, brains sectioned coronally at 40 µm, and VTA-specific expression confirmed using endogenous mCherry reporter expression, which co-localized nearly exclusively with TH immunoreactivity.
# [1] = Serum and CSF concentrations in monkey (LC-MS/MS); type: in vivo, rhesus monkey (Macaca mulatta); details: 0.1 mg kg-1
# Description: Monkey blood and CSF samples were collected from totally implanted subcutaneous access ports (Access Technologies, Virginia), connected to catheters indwelling in the femoral artery or intrathecal space of the spinal column, respectively. Rodent blood samples and brains were collected immediately following sacrifice at the indicated time points after intraperitoneal injection (10 ml kg^−1) in buffered saline. CSF was immediately frozen on dry ice and stored at −80 °C. Blood samples were allowed to coagulate for 15 min and then centrifuged at 4 °C for 15 min. Serum was collected from the supernatant and stored at a minimum of −30 °C until extraction. To 25 µl of serum, 5 µl of internal standard and 110 µl of methanol were added. Samples were centrifuged for 10 min at 16,200×g at 4 °C and the supernatant was transferred to the autosampler vial for analysis. Brains were cut in half and weighed prior to sample preparation. Half brains were homogenized in 490 µl of 85% ethanol: 15% water containing 0.1% formic acid and 5 µl of internal standard using a polytron homogenizer and centrifuged for 10 min at 16,200×g at 4 °C. […]
# Data were acquired using a Nexera XR HPLC (Shimadzu) coupled with a QTRAP 6500 (SCIEX), and was analyzed with Analyst 1.6 (SCIEX). […]
# The data were measured using standard curves and quality controls, but it was not validated to ICH guidelines. […]
# cortical hM4Di = biological target: T1, cortical hM4Di (Homo sapiens, UniProt P08173, A203G/Y113C); test: [11C]clozapine PET DREADD occupancy in rats; details: rat, read-out: occupancy of cortical hM4Di
# T1 sequence (P08173 1-479 Y113C/A203G): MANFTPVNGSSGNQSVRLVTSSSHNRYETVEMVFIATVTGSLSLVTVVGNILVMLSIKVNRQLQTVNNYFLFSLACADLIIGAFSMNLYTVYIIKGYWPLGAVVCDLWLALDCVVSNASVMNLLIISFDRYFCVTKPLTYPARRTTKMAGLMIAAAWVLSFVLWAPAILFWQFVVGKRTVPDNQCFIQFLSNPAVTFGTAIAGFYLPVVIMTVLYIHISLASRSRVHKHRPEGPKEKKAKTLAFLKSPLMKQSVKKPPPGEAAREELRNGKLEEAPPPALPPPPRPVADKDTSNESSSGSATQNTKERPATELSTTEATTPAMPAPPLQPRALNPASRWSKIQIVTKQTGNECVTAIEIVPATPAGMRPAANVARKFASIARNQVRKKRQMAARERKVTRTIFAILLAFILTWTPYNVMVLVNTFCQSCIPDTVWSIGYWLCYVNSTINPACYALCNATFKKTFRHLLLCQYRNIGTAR
# Description: Animals were anesthetized with isoflurane or a mix of ketamine/xylazine and prepped on a stereotaxic apparatus (Kopf, Germany). […] When indicated, animals were pretreated with vehicle or the indicated drug 10 min before the injection of the PET radiotracer. Total acquisition time was 60 min.
# In all cases, the PET data were reconstructed and corrected for dead-time and radioactive decay. All qualitative and quantitative assessments of PET images were performed using the PMOD software environment (PMOD Technologies, Zurich Switzerland). Binding potential BPND (a relative measure of specific binding) was calculated using a reference tissue model using the cerebellum as a reference tissue in rodents. In macaques, the kinetic data were fitted to a two-tissue compartment model and the concentration of parent in plasma was used as an input function, then the volume of distribution ratios compared to cerebellum were calculated to establish BPND. […] Receptor occupancy was calculated using the formula: occupancy = (BPND^0 − BPND^Drug)/BPND^0 × 100, where BPND^0 is the binding potential of the baseline condition and BPND^Drug the binding potential when the animals were pretreated with the drug.
# DREADDs = test: [18F]JHU37107 PET in D1-DREADD transgenic mice; type: in vivo; details: D1-DREADD mice, 0.1 mg kg-1 IP
# Description: [^18F]JHU37107 was prepared via the no-carrier-added ^18F-fluorination using an FDG Nuclear Interface module (Muenster, Germany). Briefly, 4 mg precursor (8-chloro-11-(4-ethylpiperazin-1-yl)-5H-dibenzo[b,e][1,4]diazepin-2-ol) and 8 mg tris(acetonitrile)cyclopentadienylruthenium(II)hexafluorophosphate (STREM, Boston, MA) were dissolved in ethanol (0.3 mL), the solution was heated at 85 °C for 25 min and evaporated to dryness under a stream of argon gas. The residue was dissolved in DMSO (0.5 mL) and acetonitrile (0.5 mL) and the solution was added to a dry complex of [^18F]fluoride and 9 mg 1,3-bis(2,6-di-i-propylphenyl)-2-chloroimidazolium chloride (STREM). The reaction mixture was heated at 130 °C for 30 min, diluted with mixture of 0.5 mL acetonitrile, 0.5 mL water and 0.03 mL TFA and injected onto a semi-preparative HPLC column (Luna C18, 10 micron, 10 mm × 250 mm) and eluted with 23:77 (v:v) acetonitrile:water (0.1% trifluoroacetic acid) at a flow rate of 10 mL min^−1. The radioactive peak corresponding to [^18F]JHU37107 (tR = 9.9 min) was collected in a reservoir containing 50 mL of water and 3 mL aq 8.4% NaHCO3 solution. The diluted product was loaded onto a solid phase extraction cartridge (Waters Oasis HLB plus light) and rinsed with 10 mL sterile saline. The product was eluted with 1000 µL of ethanol through a sterile 0.2 μm filter into a sterile, pyrogen-free vial and 10 mL saline was added through the same filter. The final product [^18F]JHU37107 was then analyzed by analytical HPLC (Luna C18, 10 micron, 4.6 mm × 250 mm; mobile phase 23:77 (v:v) acetonitrile:water (0.1% trifluoroacetic acid), flow rate of 3 mL min^−1; […] .
# Total acquisition time was 60 min.
compound,measurement,setting,value
"CCN1CCN(C2=Nc3cc(Cl)ccc3Nc3c(F)cccc32)CC1 [JHU37160, 8-Chloro-11-(4-ethylpiperazin-1-yl)-4-fluoro-5H-dibenzo[b,e][1,4]diazepine]","Locomotor activity, individual animals (Figure 3 Panel F)","WT littermates; dose 0.01, listed as J60",108.174 and 103.461 and 68.1848 and 77.4203 and 88.3922 and 59.3537 and 61.4668
same,"Locomotor activity, individual animals (Figure 3 Panel F)","WT littermates; dose 0.1, listed as J60",208.38 and 83.765 and 47.1951 and 156.41 and 190.369 and 42.7803 and 81.1685
same,CSF concentration,[1],below our system’s detection limit
same,serum detection,[1],detected in serum
same,receptor occupancy at 0.1 mg/kg,cortical hM4Di,~80%
same,displacement of [18F]JHU37107 PET signal,DREADDs,displaceable
